This is an account of results in patent US6429208B1, “Methods and compositions for restoring impaired cellular immune function” (Regents of the University of California, priority 1992, dated 2002).

In assay [1] the test system is PBMC from HIV seropositive subjects. The assay is described as follows: Intracellular cAMP in PBMC from HIV seropositive subjects. The following applies: 10 ng/ml for 10 min; decreased from 5.3. The assay is classed as cell-based, human. Here is the method: The compound 2′,5′ dideoxyadenosine (ddAdo) inhibits adenylate cyclase, the enzyme responsible for the generation of cAMP, by competition for the “P”-binding site (Johnson, J Biochem (1990) 265:11595-11600). […] In one such experiment (FIG. 9A), the intracellular cAMP level decreased to normal levels within 4 hours and remained at this level when tested after 20 hours. The effect of ddAdo was compared with two other adenylate cyclase inhibitors which are naturally occurring adenosine phosphates. When used in equal concentrations, the three inhibitors gave similar reductions in intracellular CAMP levels. For example, when added in 10 ng/ml for 10 min, ddAdo decreased the CAMP levels from 5.3 pmol/10^6 PBMC to 3.6; 3′ AMP to 3.5; and 2′,3′deoxy-AMP reduced the level to 3.2 pmol/10^6 PBMC.
cAMP was determined using a commercial scintillation proximity RIA (Amersham, Arlington Heights, Ill.) following the manufacturer's protocol. PKA activity was determined using a kit from Gibco (Grand Island, N.Y.) and the manufacturer's protocol. For the cAMP assay, cells were lysed and sonicated in assay buffer (provided with the kits). Proliferative assays were performed as described above.
Further purification was achieved by reverse phase chromatography. 3 ml of above solution was applied on C18 Sep-Pak cartridge (Waters) equilibrated with water+0.1% TFA. The column was washed with H2O-TFA until absorbance at 280nm reached baseline. Bound material was eluted from the column by stepwise elution with H2O-acetonitrile-TFA mixtures. There were three peaks on elution curve at 20%, 40% and 70% acetonitrile. The effluent from the above step was rechromatographed again on C18 cartridge and yielded additional quantities of the three products. […] Fraction 2 was added in various PBS dilutions to lymphocytes from HIV seropositive subjects. cAMP was then measured on lysates of these cells after 1 hour.

For another assay, the system named is normal PBMC. Nature of the assay: PHA-induced proliferation of normal PBMC, 3H-thymidine uptake. The assay is classed as cell-based, human. The following applies: for ^3H-Thy. Incorp.: PHA alone 254.2 ± 9.0. Here is the method: Peripheral blood mononuclear cells (PBMC) from healthy blood donors were isolated by Lymphoprep (Nyegaard and Co., Oslo, Norway) density gradient centrifugation. Cell cultures were prepared in Eppendorf tubes and contained 5-10×10^6 cells/ml for phosphotyrosine experiments and 2-5×10^6 cells/ml for the kinase experiments and the cAMP determinations described below. The concentration of PHA added per tube was 10 μg/ml of PHA-P (Wellcome, Beckenham, England). Phorbol 12 myristate-13 acetate (PMA) (P-8139, Sigma, St. Louis, Mo.) was dissolved in dimethylsulfoxide (DMSO) and used in optimal concentrations of 200 ng/ml. The total volume per tube was 1 ml.
(§1) Proliferative assays were performed as previously described (see, for example, Hofmann, B., et al., Cell Immunol (1989) 121:336-48. Briefly, one microcurie ^3H-thymidine was added to cultures 72 hours after stimulation, and after further 24 hours, all cultures were harvested on glass fiber filters with an automatic harvesting machine (Skatron, Lierbyen, Norway), and the incorporated radioactivity was measured in a liquid scintillation counter (Beckman LS 1800) after an addition of 1.5 ml scintillation fluid.
The concentration of Cholera toxoid was 10-0.2 μg/ml and 8-bromoadenosine 3′,5′ cyclic monophosphate (Br-cAMP) was 40-0.2 μg/ml. […] The PTK inhibitor Tyrphostin 25 (Bimol, Plymouth, Pa.) was used in a concentration of 1.0 μg/ml. Tyrphostin 25 has more than 30 fold higher affinity for PTK than for PKC and PKA. HIV components were added to final dilutions of 108-360 μg p24 antigen/mi.
Both Cholera toxoid or Br-cAMP impaired PHA-induced cell proliferation as measured by ^3H-thymidine uptake after 3 days of culture (Table 1). The 50% impairment of proliferation induced by HIV components is similar to the 50% impairment induced by 0.63 μg/ml of Cholera toxoid or […] of Br-cAMP. The experiment confirmed that cAMP impairs PHA-induced proliferation of T lymphocytes.

For another assay, the system named is membrane PKC activity. The assay is described as follows: Membrane PKC activity in PBMC. The assay is classed as cell-based, human. The protocol: The reagents were obtained as a kit from Gibco (Grand island, N.Y.) and the manufacturer's protocol was followed. After activation, cell membrane fractions were then obtained by ultracentrifugation (100,000 g for one hour at 4° C.) of sonicated cell lysates without detergent. Membrane fractions were then sonicated in the presence of 0.05% Triton X and the specific PKC activities were determined. Specific PKC activity was determined as the difference between phosphorylation of a PKC specific substrate with and without a specific PKC inhibitor present. The specific PKC substrate was a synthetic peptide from myelin basic protein with an acetylated N-terminal glutamine. The specific PKC inhibitor was a pseudo-substrate peptide which specifically binds to the pseudo-substrate region of the regulatory domain of PKC. The reaction mixture was spotted on cellulose paper, non-bound ^32P-ATP was removed by washing, and the paper discs were counted in a β counter after addition of scintillation fluid. The amounts of lysate over which the assay was linear were determined in initial experiments. All experiments were repeated 2-5 times.

The test system of assay [2] is PBMC from an HIV seropositive subject. Nature of the assay: Proliferative response to PHA of PBMC from HIV seropositive subjects. The assay is classed as cell-based, human. Here is the method: as §1
In the next assay the target is PKA (Homo sapiens, UniProt P17612). The following applies: cited from earlier work.
In the next assay the test system is PTK. The following applies: cited from earlier work.
The mark [3] stands for this setting: cells not stimulated (control), without inhibitor 1.3 ± 0.2.
[4] abbreviates: cells stimulated by HIV, without inhibitor 3.0 ± 0.2.
[5] abbreviates: cells stimulated by PHA, without inhibitor 4.2 ± 1.6.

Compound 2′,3′deoxy-AMP showed a cAMP levels in assay [1] of 3.2 pmol/10^6 PBMC.
In turn, `Nc1ncnc2c1ncn2[C@@H]1O[C@H](CO)[C@@H](OP(=O)(O)O)[C@H]1O` [3′ AMP] registered a cAMP levels in assay [1] of 3.5 pmol/10^6 PBMC.
As for `Nc1ncnc2c1nc(Br)n2[C@@H]1O[C@@H]2COP(=O)(O)O[C@H]2[C@H]1O` [Br-cAMP, 8-bromoadenosine 3′,5′ cyclic monophosphate], the “Concentration inducing 50% impairment of PHA-induced proliferation” value in the assay on normal PBMC (3 days of culture) was determined as 200 µg/mL. Also, the “Activity, percentage of activity of PHA control” value with normal PBMC (PHA + 100 μg/ml) came to 66%; in the assay with normal PBMC (PHA + 200 μg/ml), 38%; in the assay on normal PBMC (PHA + 400 μg/ml), 16%. Moreover, the “^3H-Thy. Incorp.” value stood at 168.7 ± 21.9 cpm ×10^−6 with normal PBMC (PHA + 100 μg/ml), 96.3 ± 14.4 cpm ×10^−6 with normal PBMC (PHA + 200 μg/ml) and 41.6 ± 2.1 cpm ×10^−6 with normal PBMC (PHA + 400 μg/ml). Also, the PKC membrane activity in the assay with membrane PKC activity (setting [3]) is listed as 3.9 ± 1.7 nM of ^32P/minute/10^6 PBMC; in the assay with membrane PKC activity (setting [4]) it was 2.2 ± 1.5 nM of ^32P/minute/10^6 PBMC; with membrane PKC activity (setting [5]) it was 2.1 ± 1.6 nM of ^32P/minute/10^6 PBMC.
On to `O=S(=O)(NCCNC/C=C/c1ccc(Br)cc1)c1cccc2cnccc12` [H-89], for which the PKC membrane activity with membrane PKC activity (setting [3]) is recorded as 6.0 ± 1.9 nM of ^32P/minute/10^6 PBMC; in the assay with membrane PKC activity (setting [4]) it was 12.9 ± 4.7 nM of ^32P/minute/10^6 PBMC; with membrane PKC activity (setting [5]) it was 9.4 ± 5.5 nM of ^32P/minute/10^6 PBMC. Besides, in assay [2], the “Proliferative response to PHA” value is listed as “enhance proliferation”. For the same compound, the “Fold higher affinity for PKA than for PKC” value at PKA is 660 fold.
As for `N#CC(C#N)=Cc1ccc(O)c(O)c1` [T-23], in assay [2], the “Proliferative response to PHA” value is “enhance proliferation”.
As to `N#CC(C#N)=Cc1cc(O)c(O)c(O)c1` [Tyrophostin-25], the PKC membrane activity in the assay with membrane PKC activity (setting [3]) was 2.0 ± 0.9 nM of ^32P/minute/10^6 PBMC; in the assay on membrane PKC activity (setting [4]), 4.6 ± 0.0 nM of ^32P/minute/10^6 PBMC; in the assay on membrane PKC activity (setting [5]) it was 7.7 ± 7.7 nM of ^32P/minute/10^6 PBMC. For the same compound, the “Fold higher affinity for PTK than for PKC and PKA” value in the assay with PTK is listed as “more than 30 fold”.
